Two molecules from US8216607B2, “Combination of ceramide and gemcitabine for inducing cell death and uses thereof in treating cancer” (priority 2008, dated 2012) can be followed below.

The test system of data set [1] is L3.6 human pancreatic adeno-carcinoma. The method, then:
Pancreatic adenocarcinoma (PA), the fifth most common cause of cancer death in the United States is commonly metastatic and unresectable and is poorly responsive to therapy. […] The in vitro cytotoxicity effect of gemcitabine+/−C6 ceramide versus L3.6 pancreatic cancer cell line were measured using MTT assay. In vivo experiments were performed using SCID/Beige/Taconic male mice, 22-25 g, 6-8 weeks old (Taconic Laboratory, Germantown, N.Y., USA). Mice were inoculated s.c. with 2×106L3.6 PA cells. Four days later mice developed primary tumors and chemotherapy was started. Mice were treated 3 times/week for 4 weeks with i.p. injections of gemcitabine (5.0-10.0-15.0 mg/kg) and C6 ceramide (10.0 mg/kg) or combinations of these drugs. Body weight (BW) and diameters of tumors (TD) were measured every week. Diameters of tumors were used to count the volumes of primary tumors: TV. We also studied percent survival and mean survival time (MST). In these experiments we used the new test: mean rate tumor development (MRTD) which reflects the speed of tumor development and was measured by the formula: MTV/MST.
In vivo experiments utilized SCID/Beige/Taconic male mice inoculated S.C. with 2×106 L3.6 pancreatic cells which were treated 4 days post tumor implant with thrice weekly (3×/wk) intraperitoneal (IP) injections of paclitaxel (P) 3.0 mg/kg, oxaliplatin (OX) 2.5 mg/kg, cisplatin (CP) 2.5 mg/kg, gemcitabine (Gem) 15 mg/kg with or without ceramide 10 mg/kg. Chemotherapy dose levels were based on standardized clinical dosing as modified from in vitro data. […] Maximum tumor volume, tumor weight, body weight and survival were recorded. […] Separate histopathology studies recorded short term effects on tumor necrosis, mitotic index and caspase index.

The test system of data set [2] is L3.6 pancreatic cancer cell line.
[3] abbreviates: dose column 10 mg/kg (gemcitabine or ceramide alone; ceramide 10 mg/kg in combination).

Each structure is given as a SMILES string. Like-named read-outs stand apart in the source and are kept apart here.

In the case of `CCCCCCCCCCCCC/C=C/[C@@H](O)[C@H](CO)NC(=O)CCCCC` [Ceramide, N-hexanoyl-D-sphingosine], the “anti-tumor regression and survival induced by Oxaliplatin and Gemcitabine” value in data set [1] (combination therapy) is “significantly enhanced”. The “Tumor Size (cc)” value in data set [1] (dose column 10 mg/kg) was determined as 0.253 cc. Besides, in data set [1] (setting [3]), the “Mean Survival Time” value was 27.8 ± 10.2 days. Moreover, the “anti tumor effects of co-administered drugs” value in data set [1] (with Paclitaxel, Doxorubicin, Cisplatin, Oxaliplatin, Gemcitabine) is recorded as “augmented the anti tumor effects”. For the same molecule, in data set [2], the “effect on cytotoxicity induced by low dose cisplatin and oxaliplatin” value is reported as “parallel effects”.
For the molecule `Nc1ccn([C@@H]2O[C@H](CO)[C@@H](O)C2(F)F)c(=O)n1` [Gemcitabine], in data set [1] (3 weeks), the “% Survival @ 3 Weeks” value stood at 40%. For the same molecule, in data set [1] (6 weeks), the “% Survival @ 6 Weeks” value came out at 0%. Also, the “Tumor Size (cc)” value in data set [1] (dose column 5 mg/kg) is on record as 0.412 cc; in data set [1] (dose column 10 mg/kg), 0.376 cc; in data set [1] (dose column 15 mg/kg), 0.439 cc. Besides, the “Mean Survival Time” value worked out at 19.6 ± 3.6 days in data set [1] (dose column 5 mg/kg (gemcitabine; ceramide 10 mg/kg in combination)); 27.8 ± 10.2 days in data set [1] (setting [3]); 23.2 ± 5.9 days in data set [1] (dose column 15 mg/kg (gemcitabine; ceramide 10 mg/kg in combination)); 22.8 ± 4.5 days in data set [1] (i.p. 3x/wk, paclitaxel 3.0, oxaliplatin 2.5, cisplatin 2.5, gemcitabine 15, ceramide 10 mg/kg). In data set [1] (i.p. 3x/wk from day 4, paclitaxel 3.0, oxaliplatin 2.5, cisplatin 2.5, gemcitabine 15, ceramide 10 mg/kg, observed 6 weeks, in cm³), the “Mean Final Tumor Volume” value was 1.10 +/−^. In data set [1] (time of death or sacrifice), the “Mean Body Weight (g) (Time of Death or Sacrifice)” value is listed as 15.6 g.
